Measurements taken from US10370401B2, “Substituted nucleosides, nucleotides and analogs thereof” (Alios BioPharma, Inc., priority 2013, dated 2019).
Like-named read-outs stand apart in the source and are kept apart here.

Legend:
[1] = biological target: dengue virus NS5 polymerase domain (DENVpol, serotype 2, New Guinea C strain) (Dengue virus type 2, UniProt P14340); test: Dengue virus polymerase inhibition assay; format: biochemical; conditions: DENVpol serotype 2, 3 hours at 30° C., mean of several independent experiments
Method: The enzyme activity of dengue virus NS5 polymerase domain (DENVpol, serotype 2, New Guinea C strain) was measured as an incorporation of tritiated NMP into acid-insoluble RNA products. DENVpol assay reactions contained 100 nM recombinant enzyme, 50 nM heteropolymeric RNA, about 0.5 μCi tritiated NTP, 0.33 μM of competing cold NTP, 40 mM HEPES (pH 7.5), 3 mM dithiothreitol, and 2 mM MgCl2. Standard reactions were incubated for 3 hours at 30° C., in the presence of increasing concentration of inhibitor. At the end of the reaction, RNA was precipitated with 10% TCA, and acid-insoluble RNA products were filtered on a size exclusion 96-well plate. After washing of the plate, scintillation liquid was added and radiolabeled RNA products were detected according to standard procedures with a Trilux Topcount scintillation counter. The compound concentration at which the enzyme-catalyzed rate was reduced by 50% (IC50) was calculated by fitting the data to a non-linear regression (sigmoidal).

NS5B570-Con1 (Delta-21) = NS5B570-Con1 (Delta-21) (Hepatitis C virus genotype 1b, UniProt Q9WMX2); test: biochemical; design: species or system HCV
[2] = biological target: human rhinovirus 16 polymerase (HRV16pol) (Human rhinovirus 16, UniProt Q82122); test: biochemical; conditions: HRV16pol, 2.5 h at 30° C., mean of several independent experiments; read-out: IC50
[3] = tested on: Dengue virus type 2 strain New Guinea C (NG-C) or Dengue virus type 4 strain H241; test: Dengue virus cell-based assay (Huh-7.5 cells, CellTiter-Glo)
Method: The Dengue virus type 2 strain New Guinea C (NG-C) and the Dengue virus type 4 strain H241 were purchased from ATCC (Manassas, Va.; item numbers VR-1584 and VR-1490, respectively). 24 h prior to dosing, Huh-7.5 cells were plated in 96 well plates at a density of 1.5×10^5/mL in DMEM medium supplemented with 10% fetal bovine serum, 1% HEPES buffer, 1% Penicillin/Streptomycin and 1% non-essential amino acids (all Mediatech, Manassas, Va.). At the day of infection, serially diluted compounds were added to cells and incubated for 4 h. After the end of the 4 h pre-incubation period, cells were infected with either Dengue virus type 2 NG-C or Dengue virus type 4H241. The virus inoculum was selected to cause 80-90% cytopathic effect in five to six days. Infected cells were incubated for five (NG-C) to six (H241) days at 37° C., 5% CO2. To develop the assay, 100 μL media was replaced with 100 μl CellTiter-Glo® reagent (Promega, Madison, Wis.), and incubated for 10 mins at RT. Luminescence was measured on a Victor X3 multi-label plate reader. Potential compound cytotoxicity of was determined using uninfected parallel cultures.

Human rhinovirus 1B = test: Picornavirus assay (CPE, CellTiter-Glo, HeLa-OHIO cells); format: cell-based
[4] = Rhinovirus A, 96 h, Human rhinovirus 1B, HeLa-OHIO cells, 4 d at 33° C., read-out: EC50
[5] = Huh-7.5 cells, antiviral activity, dengue type (2 NG-C or 4 H241) not given, read-out: IC50
[6] = Human rhinovirus 1B, HeLa-OHIO cells, 4 d at 33° C., read-out: EC50

human rhinovirus 16 polymerase (HRV16pol), sequence (Q82122 1694-2153 limits assumed): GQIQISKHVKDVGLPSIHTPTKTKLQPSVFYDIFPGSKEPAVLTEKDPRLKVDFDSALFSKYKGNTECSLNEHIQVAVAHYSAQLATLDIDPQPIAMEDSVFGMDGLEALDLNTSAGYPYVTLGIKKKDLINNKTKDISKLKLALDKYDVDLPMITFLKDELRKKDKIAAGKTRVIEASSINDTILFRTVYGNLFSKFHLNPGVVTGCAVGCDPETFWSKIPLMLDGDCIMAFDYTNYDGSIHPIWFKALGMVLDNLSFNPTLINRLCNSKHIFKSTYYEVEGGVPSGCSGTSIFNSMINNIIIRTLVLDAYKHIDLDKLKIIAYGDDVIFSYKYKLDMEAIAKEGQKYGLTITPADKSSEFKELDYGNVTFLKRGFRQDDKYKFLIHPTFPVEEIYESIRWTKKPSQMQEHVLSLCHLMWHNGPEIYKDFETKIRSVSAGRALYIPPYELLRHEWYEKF

SMILES	IC50 [1]	IC50 (NS5B570-Con1 (Delta-21))	IC50 [2]	IC50 ([3]; Dengue virus, Huh7.5)	EC50 (Human rhinovirus 1B; [4])	other results
C#C[C@]1(O)[C@H](n2cnc3c(=O)[nH]c(N)nc32)O[C@](F)(COP(=O)(O)OP(=O)(O)OP(=O)(O)O)[C@H]1F [compound 103]	< 1 µM	< 1000 nM	< 1000 nM			
C#C[C@]1(O)[C@H](n2ccc(=O)[nH]c2=O)O[C@](F)(COP(=O)(OCOC(=O)OC(C)C)OCOC(=O)OC(C)C)[C@H]1O [Compound 53]				< 10 µM	< 1000 nM	
CCOc1nc(N)nc2c1ncn2[C@@H]1O[C@]2(F)CO[P@](=O)(OC(C)C)O[C@H]2[C@@]1(C)F [Compound 86]				< 1 µM	10000 to 100000 nM	
C[C@]1(O)[C@H](n2cnc3c(=O)[nH]c(N)nc32)O[C@](F)(COP(=O)(O)OP(=O)(O)OP(=O)(O)O)[C@H]1F [compound 101]	< 10 µM	< 1000 nM	< 1000 nM			
CCOc1nc(N)nc2c1ncn2[C@@H]1O[C@]2(F)CO[P@](=O)(OC(C)C)O[C@H]2[C@@]1(C)O [Compound 88]				< 10 µM	10000 to 100000 nM	
CCOc1nc(N)nc2c1ncn2[C@@H]1O[C@]2(F)CO[P@@](=O)(OC(C)C)O[C@H]2[C@@]1(C)O [Compound 89]				< 10 µM	10000 to 100000 nM	
C#C[C@]1(O)[C@H](n2ccc(=O)[nH]c2=O)O[C@](F)(COP(=O)(N[C@@H](C)C(=O)OC2CCCCC2)Oc2ccccc2)[C@H]1O (stereo partly drawn) [Compound 13]				< 1 µM		EC50 (Human rhinovirus 1B; Rhinovirus A, 96 h): < 1000 nM
C[C@@]1(F)[C@H](O)[C@@](CF)(COP(=O)(O)OP(=O)(O)OP(=O)(O)O)O[C@H]1n1cnc2c(=O)[nH]c(N)nc21 [compound 162]	< 10 µM	1000 to 10000 nM	< 1000 nM			
C#C[C@]1(O)[C@H](n2cnc3c(OCC)nc(N)nc32)O[C@](F)(CO[P@@](=O)(N[C@@H](C)C(=O)OC2CCCCC2)Oc2ccccc2)[C@H]1O [Compound 28]						IC50 [3, 5]: < 10 µM; EC50 (Human rhinovirus 1B; [6]): < 1000 nM
CC(C)OC(=O)OCOP(=O)(OCOC(=O)OC(C)C)OC[C@@]1(F)O[C@@H](n2cnc3c(=O)[nH]c(N)nc32)[C@](C)(O)[C@@H]1O [Compound 46]				< 100 µM	< 1000 nM	
CCOc1nc(N)nc2c1ncn2[C@@H]1O[C@](F)(CO[P@](=O)(N[C@@H](C)C(=O)OC2CCCCC2)Oc2ccccc2)[C@@H](O)[C@@]1(C)F [Compound 25]				< 1 µM		EC50 (Human rhinovirus 1B; Rhinovirus A, 96 h): < 1000 nM
C[C@@]1(O)[C@H](O)[C@@](CF)(COP(=O)(O)OP(=O)(O)OP(=O)(O)O)O[C@H]1n1cnc2c(=O)[nH]c(N)nc21 [compound 34]	< 1 µM	< 1000 nM	< 1000 nM			
CC(C)OC(=O)OCOP(=O)(OCOC(=O)OC(C)C)OC[C@@]1(F)O[C@@H](n2ccc(=O)[nH]c2=O)[C@](C)(O)[C@@H]1O [Compound 9]				< 10 µM	< 1000 nM	
CC(C)OC(=O)OCOP(=O)(OCOC(=O)OC(C)C)OC[C@@]1(F)O[C@@H](n2ccc(=O)[nH]c2=O)[C@](C)(F)[C@@H]1O [Compound 161]				< 10 µM	1000 to 10000 nM	
CCOc1nc(N)nc2c1ncn2[C@@H]1O[C@](F)(COP(=O)(N[C@@H](C)C(=O)OC2CCCCC2)Oc2ccccc2)[C@@H](O)[C@@]1(C)O (stereo partly drawn) [Compound 10]				< 1 µM		EC50 (Human rhinovirus 1B; Rhinovirus A, 96 h): < 1000 nM
C[C@]1(F)[C@H](n2cnc3c(=O)[nH]c(N)nc32)O[C@](F)(COP(=O)(O)OP(=O)(O)OP(=O)(O)O)[C@H]1O [compound 19]	< 10 µM	< 1000 nM	< 1000 nM			
C#C[C@]1(O)[C@H](n2cnc3c(OCC)nc(N)nc32)O[C@](F)(CO[P@](=O)(N[C@@H](C)C(=O)OC2CCCCC2)Oc2ccccc2)[C@H]1O [Compound 27]						IC50 [3, 5]: < 10 µM; EC50 (Human rhinovirus 1B; [6]): < 1000 nM
C[C@@]1(O)[C@H](O)[C@@](CF)(COP(=O)(O)OP(=O)(O)OP(=O)(O)O)O[C@H]1n1ccc(=O)[nH]c1=O [compound 92]	< 10 µM	< 1000 nM	< 1000 nM			
C[C@@]1(O)[C@H](O)[C@@](CF)(COP(=O)(O)OP(=O)(O)OP(=O)(O)O)O[C@H]1n1ccc(N)nc1=O [compound 91]	< 100 µM	< 1000 nM	< 10000 nM			
